The source made the active and inactive calls. The rule behind the calls is not given here.
Experiments:
Format in all cases: functional
Echinoidea [1] = experiment: (§1) Inhibition of cell division in fertilized sea urchin egg at 1 ppm
[2] = as §1; conditions: Echinoidea
Echinoidea [3] = experiment: Inhibition of cell division in fertilized sea urchin egg at 3 ppm

| Compound | Activity (Echinoidea [1]) | also measured |
| --- | --- | --- |
| CC(=O)O[C@@H]1OC=C[C@]12C=C1C=C(C)CC[C@H]1C2(C)C | Active |  |
| CC(=O)O[C@@H]1OC=C[C@]12Cc1cc(C)ccc1C2(C)C | Active |  |
| CC(=O)O[C@@H]1OC=C[C@]12CC1=C[C@](C)(OO)CC[C@H]1C2(C)C | Active |  |
| CC(=O)O[C@@H]1OC=C[C@]12C[C@H]1C=C(C)CC[C@H]1C2(C)C [SPIRODYSIN] |  | inhibition at 1 ppm [2]: 90% |
| CC(=O)O[C@@H]1OC=C[C@]12CC1=C[C@@](C)(OO)CC[C@H]1C2(C)C | Active |  |
| CC1=C[C@@H]2C[C@]3(C=COC3=O)C(C)(C)[C@@H]2CC1 |  | Activity (Echinoidea [3]): inactive |

— ChEMBL document CHEMBL1142607, “Haterumadysins A-D, sesquiterpenes from the Okinawan marine sponge Dysidea chlorea” (2006)
